{
  "source": "patent US9969744B2",
  "about": "“Compounds for use in cognition improvement” (FUNDACIÓN PARA LA INVESTIGACIÓN MÉDICA APLICADA, priority 2014, dated 2018)",
  "key": {"[1]": {"test_system": "phosphorylated tau (p-Tau)", "assay": "AD-related markers in Tg2576 neurons: pTau", "type": "cell-based, mouse", "details": "Tg2576 primary neurons, compound concentration 50 nM", "method": "The effects of the compounds on amyloid pathology were analysed in primary cultures after 21 days in-vitro (DIV) of neurons derived from the hippocampus and cortex of Tg2576 mouse embryos. Tg2576 mice express the human 695-aa isoform of APP (hAPP) containing the Swedish double mutation, which favours A3 production. Neurons were treated for two days and collected at day 3, 24 h after the last treatment. First it was analysed the effect of the compounds on hAPP processing by the amyloidogenic pathway by measuring the carboxyl terminal fragment AβPP (C99), which is the precursor of Aβ42. […]\nIt was next analyzed the effect of the compounds on levels of phosphorylated tau (p-Tau) in the same samples, another marker of AD, using a phospho-specific antibody (AT8) that recognizes hyperphosphorylated epitopes on Ser202/Thr205. […]\nTo analyze APP-derived fragments and p-Tau levels in primary neuronal cultures, cells were collected in a buffer containing SDS (2%), Tris-HCl (10 mM, pH 7.4), protease inhibitors (1 mM phenylmethylsulfonyl fluoride (PMSF) and Complete Protease Inhibitor Cocktail: Roche Diagnostics) and phosphatase inhibitors (0.1 mM Na3VO4 and 1 mM NaF). […] Aliquots of the supernatant were frozen at […] and their protein concentrations determined by the Bradford method using the Bio-Rad protein assay (Bio-Rad, Hercules, Calif., USA). […]"}, "[2]": {"assay": "Pharmacokinetics: plasma and brain concentration in wild type mice", "type": "in vivo", "details": "1 hour after 40 mg/Kg i.p.", "method": "Plasma and brain samples for measuring compounds concentrations were collected at predetermined times from four wild type mice per point. Three time points were measured: 0.25, 0.5 and 1.0 hour. Compounds concentration was measured using a Xevo-TQ MS triple quadropole mass spectrometer with an electrospray ionization (ESI) source and an Acquity UPLC (Waters, Manchester, UK).\nCompounds solutions were prepared by dissolving the samples in DMSO and this solution was made up to a final volume by addition of a mixture of Tween 20 and 0.9% NaCl (1/1/8, v:v:v, DMSO/Tween 20/saline). Compounds were injected as a single intraperitoneal injection. Animals were killed by decapitation.\nPlasma. Blood was collected into tubes containing EDTA and plasma was collected via centrifugation (4° C., 13200 rpm, 5 min) and stored at −80° C. until analysis.\nBrain. Brains were collected immediately after mice death. The brains were excised, weighed and frozen at −80° C. until further process for analysis.\nChromatographic separation was performed by gradient elution at 0.4 mL/min using an Acquity UPLC BEH C18 column (100×2.1 mm, 1.7 μm particle size; Waters). The mobile phase consisted of A: water with 0.1% formic acid, B: methanol with 0.1% formic acid. After 1.5 min at the initial condition of 95% A, solvent B was increased from 5% to 100% over 2 min, maintained at 100% for 1.5 min, then a linear gradient to initial conditions was applied for 0.1 min and maintained for 3.4 minutes to re-equilibrate the column, giving a cycle time of 8.5 min. The autosampler temperature was set at 10° C. and column temperature at 45° C.\nCompounds were monitored using a triple quadrupole mass spectrometer equipped with an electrospray ionization interface. For detection and quantification, a capillary voltage of 3.5 kV and a cone voltage of 38 V were used. Source and desolvation temperatures were 150° C. and 650° C., respectively. Ultra-high purity nitrogen was used for cone gas (75 L h^−1) and desolvation gas (1000 L h^−1). The electrospray ionization operated in the positive mode, and the collision gas used was ultra-pure argon at a flow rate of 0.15 mL min^−1.\nQuantification was achieved by external calibration using matrix-matched standards. Concentrations were calculated using a weighted least-squares linear regression (W=1/x). Calibration standards were prepared by adding the appropriate volume of diluted solutions of the compound (made in a mixture of methanol and water, 50:50, v:v) to aliquots of 50 uL of blank plasma or to 75 mg of homogenized blank brain. 2% formic acid in acetonitrile was added to precipitate the proteins. The mixture was then agitated for 10 min and centrifuged at 13200 rpm for 5 min at 4° C. […]"}},
  "note": "Marks after values point to notes of the source that are not given here.",
  "data": [
    {"smiles": "CCCc1nn(C)c2c(=O)[nH]c(-c3cc(Cc4ccc(C(=O)Nc5ccccc5N)cc4)ccc3OCC)nc12", "note": "[Example 1-11, N-(2-aminophenyl)-4-[[4-ethoxy-3-(1-methyl-7-oxo-3-propyl-6H-pyrazolo[4,3-d]pyrimidin-5-yl)phenyl]methyl]benzamide]", "values": [
      {"measurement": "decrease in pTau levels over basal", "setting": "[1]", "result": "++ (basal x0.2≤(++)<basal x0.4 (reduction between 20% and 40%))"},
      {"measurement": "Crosses BBB?", "setting": "[2]", "result": "Yes"},
      {"measurement": "C (brain)", "setting": "[2]; standard deviation in brackets", "result": "1903.4 (565.8)^a nmol/Kg"},
      {"measurement": "C (plasma)", "setting": "[2]; standard deviation in brackets", "result": "12132.5 (1762.9)^a nM"},
      {"measurement": "Kp at 1 h", "setting": "[2]; mouse, brain/plasma, intraperitoneal, read-out: Brain/Plasma ratio", "result": 0.157}
    ]}
  ]
}
